Measured values as given in US20150158931A1, “CYSTEINE PROTEASE CAPTURING AGENTS” (Stichting Het Nederlands Kanker Instituut, priority 2012, published 2015).
Primed or numbered codes have the meaning given here. PEG4′ = not defined here; PRG = propargyl

How the values were obtained:
[1] = system: DUBs in cell lysates; assay: Labeling of active DUBs in cell lysates at endogenous levels with fluorescent probe; assay type: binding; conditions: fluorescence
[2] = system: GFP-DUB fusions (catalytic cysteine to serine mutants); assay: Labeling of overexpressed GFP-DUB fusions in cell lysates; assay type: binding; conditions: transfected cells, lysate
Experimental: For overexpression of GFP-tagged DUBs in cells, wild type USP14, Otub1, Otub2, Otud1 and POH1 were subcloned from pDEST-cDNA constructs (Addgene) into the eGFP-C1 vector system (Clontech) at XhoI/EcoRI restriction sites. Mutagenesis of catalytic Cysteines was performed by standard protocols (Stratagene) using the following primers (sites of mutagenesis underlined): USP14-C114S forward-CTTGGTAACACTTCTTACATGAATGCC, reverse-GGCATTCATGTAAGAAGTGTTACCAAG; Otub1-C9/S forward-CCTGACGGCAACTCTTTCTATCGGGC, reverse-GC CCGATAGAAAGAGTTGCCGTCAGG; Otub2-C51S forward-GG GATGGGAACTCCTTCTACAGGGCC, reverse-GGCCCTGTAGAAGGAGTTCCCATCCC. […] Reactions were stopped by the addition sample loading buffer supplemented with (β-mercaptoethanol, followed by boiling for 10 min. Samples were resolved on 4-12% MOPS NU-PAGE Gels (Invitrogen) and probe reactivity was assessed by TAMRA fluorescence scanning as described above. Gels were then transferred onto Nitrocellulose membranes and immunoblotted using anti-GFP serum produced in rabbit and mouse anti-β-actin (Sigma-Aldrich). Immunoblots were visualized using a Licor Odyssey. The following fluorescent secondary antibodies purchased from LICOR were used: anti-mouse-680, anti-rabbit-800.

[3] = system: SENPs (GST-SENP1, SENP6, SENP7); assay: Labeling of SENPs with SUMO-PRG peptides (SDS-PAGE, fluorescence); assay type: binding, human; conditions: for selective capturing / binding of SENPs: SENPs 1 μM, peptides 50 μM, 1 hour at RT; for binding to SENPs denatured prior to addition of the peptides: hydrolases denatured (1x LB, 5 min boiling) before peptide
Experimental: The following experiment was performed to confirm that propargyl modified SUMO peptide (fragments) in accordance with the invention are selective capturing agent for the corresponding SENPs. The following SUMO peptides and SENPs were used in the Experiment. • SUMO peptides: • SUMO1=Cy5-PEG4-YQEQTG-PRG • SUMO2,3=Cy5-PEG4-FQQQTG-PRG • SENPs: • GST-SENP1 (43 kDa) • SENP6 (33.1 kDa) • SENP7 (37.2 kDa)
The SENPs (1 μM final concentration) were incubated with the SUMO-PRG peptides (50 μM final concentrations) for 1 hour at RT in buffer (20 mM Tris, 100 mM NaCl, 1 mM DTT, pH 7.5). Samples were denatured using 1× LB and boiled for 5 min. As a control, the SENPs were denatured (1×LB and 5 min. boiling) prior to treatment with the SUMO-PRG peptides. Samples were resolved by SDS-PAGE (12% polyacryl amide, MES buffer) and proteins were visualized by fluorescence (λex,em=625,680 nm) and CBB staining.

[4] = molecular target: T1, papain (Carica papaya, UniProt P00784); assay: In vitro labeling reaction of cysteine proteases: papain; assay type: binding
T1 construct: papain, a general cysteine protease obtained from Papaya Latex; from tissue; host or cells: papaya latex
T1 sequence (P00784 134-345): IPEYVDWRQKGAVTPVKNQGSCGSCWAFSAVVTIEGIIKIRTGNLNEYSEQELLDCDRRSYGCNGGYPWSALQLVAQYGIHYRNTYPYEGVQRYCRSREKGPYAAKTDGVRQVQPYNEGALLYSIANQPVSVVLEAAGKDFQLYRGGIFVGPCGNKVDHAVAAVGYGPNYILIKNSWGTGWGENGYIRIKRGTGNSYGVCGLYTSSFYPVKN
Experimental: (§1) General procedure: DUB was dissolved in PBS with 5 mM dithiothreitol to a concentration of 1 mg/mL.

[5] = molecular target: T2, UCH-L3 (Homo sapiens, UniProt P15374); assay: Reaction between Ubiquitin75-propargylamide and UCH-L3 (LC-MS, SDS-PAGE); assay type: binding
T2 construct: made in house
T2 sequence (P15374 1-230): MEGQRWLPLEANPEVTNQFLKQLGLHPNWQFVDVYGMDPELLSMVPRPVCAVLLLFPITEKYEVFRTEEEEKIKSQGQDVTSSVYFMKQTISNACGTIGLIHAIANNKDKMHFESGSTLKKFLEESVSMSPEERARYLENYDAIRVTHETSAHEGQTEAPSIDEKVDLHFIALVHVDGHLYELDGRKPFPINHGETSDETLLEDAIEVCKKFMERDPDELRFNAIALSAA
Experimental: Recombinant UCH-L3 was expressed and purified as described previously (C. N. Larsen, J. S. Price, K. D. Wilkinson, Biochemistry 35, 6735 (1996)).
as §1

[6] = molecular target: T3, ubiquitin ligase E1 (Homo sapiens, UniProt P22314); assay: In vitro labeling reaction: ubiquitin ligase E1; assay type: binding
T3 sequence (P22314 1-1058): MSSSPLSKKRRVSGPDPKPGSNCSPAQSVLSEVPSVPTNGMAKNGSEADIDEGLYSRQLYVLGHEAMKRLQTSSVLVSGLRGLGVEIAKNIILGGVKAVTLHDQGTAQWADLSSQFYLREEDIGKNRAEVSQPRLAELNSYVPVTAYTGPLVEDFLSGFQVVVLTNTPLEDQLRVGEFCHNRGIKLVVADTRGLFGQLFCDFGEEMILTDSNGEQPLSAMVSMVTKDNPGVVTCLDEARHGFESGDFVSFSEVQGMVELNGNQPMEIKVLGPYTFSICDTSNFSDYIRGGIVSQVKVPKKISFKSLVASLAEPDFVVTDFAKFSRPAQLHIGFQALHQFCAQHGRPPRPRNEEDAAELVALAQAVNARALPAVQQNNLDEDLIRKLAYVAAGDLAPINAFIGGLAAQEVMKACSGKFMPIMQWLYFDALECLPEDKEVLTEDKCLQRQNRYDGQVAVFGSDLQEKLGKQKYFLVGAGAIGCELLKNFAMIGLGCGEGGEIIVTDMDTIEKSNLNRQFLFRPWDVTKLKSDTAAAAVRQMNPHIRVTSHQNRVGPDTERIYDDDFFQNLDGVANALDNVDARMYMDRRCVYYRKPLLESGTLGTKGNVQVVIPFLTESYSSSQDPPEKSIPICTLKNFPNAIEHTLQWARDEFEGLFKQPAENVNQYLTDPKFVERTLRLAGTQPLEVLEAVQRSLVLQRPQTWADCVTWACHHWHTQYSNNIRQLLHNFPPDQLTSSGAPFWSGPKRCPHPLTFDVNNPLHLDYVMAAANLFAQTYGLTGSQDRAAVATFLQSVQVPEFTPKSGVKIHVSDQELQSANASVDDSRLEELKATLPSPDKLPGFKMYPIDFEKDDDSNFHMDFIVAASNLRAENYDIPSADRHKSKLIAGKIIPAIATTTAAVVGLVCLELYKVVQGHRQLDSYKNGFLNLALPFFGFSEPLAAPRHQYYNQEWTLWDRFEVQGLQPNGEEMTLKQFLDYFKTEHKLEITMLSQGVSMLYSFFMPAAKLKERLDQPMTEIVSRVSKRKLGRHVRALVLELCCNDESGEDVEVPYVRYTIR
Experimental: as §1

[7] = molecular target: T2, UCH-L3; assay: Thioradical-mediated cleavage of Ub-Prg-UCH-L3 complex; conditions: ethane thiol 50 mM, VA-044 10 mM, three hours
Experimental: The reaction was incubated for 30 minutes at 37° C. and was buffer exchanged into water by PD-10 column (GE Healthcare) and lyophilized overnight. The resulting white powder was dissolved in PBS (100 μL) and to 90 μL of this solution 10 μL of ethanethiol was added (143 μmole) and VA-044 to a final concentration of 10 mM. The reaction was shaken at 37° C. for three hours prior to LC-MS analysis.
To a solution of Ub-prg-UCH-L3 complex in PBS (0.5 mg/mL; 80 μL) various amounts of thiol were added to the final concentrations indicated. Radical initiator VA-044 was added at the concentrations indicated and the reaction was shaken at 37° C. for 3 hours after which the reactions were analysed by non-reducing SDS-PAGE.

[8] = system: cysteine protease DUBs; assay: Reaction between Ubiquitin75-propargylamide and DUBs, in vitro labeling; assay type: binding; conditions: including OTU-domain containing DUBs
Experimental: as §1

[9] = system: SENP-1; assay: In vitro labeling reaction of cysteine proteases: SENP-1; assay type: binding
Experimental: as §1

[10] = molecular target: T2, UCH-L3; assay: Acid cleavage of the complex between Ubiquitin75-propargylamide and the DUBs; conditions: incubation with various acids
Experimental: To a solution of Ubiquitin75-propargylamide-UCH-L3 complex in PBS (3 mg/mL; 10 μL) was added a 3-fold concentrated solution of the tested acid. The reactions were incubated overnight and analyzed by SDS-PAGE chromatography and/or mass spectrometry.

Substance: TMR-Ub-Prg: N-terminally tetramethylrhodamine (TMR) labeled analogue of Ub-Prg
- labeling of active DUBs in lysates at endogenous levels [1]: clear labeling results
- reaction with DUB mutants, active site cysteine mutated to serine [2]: failed to react

Substance: Cy5-PEG4-YQEQTG-PRG ({Cy5-PEG4′}-YQEQTG-{PRG}) [SUMO1, truncated fluorescent C-terminal propargylated SUMO peptide, C-terminus of SUMO-1]
- selective capturing / binding of SENPs [3]: selective binding
- binding to SENPs denatured prior to addition of the peptides [3]: completely abolishes binding

Substance: Cy5-PEG4-FQQQTG-PRG ({Cy5-PEG4′}-FQQQTG-{PRG}) [SUMO2,3, truncated fluorescent C-terminal propargylated SUMO peptide, C-termini of SUMO-2 and SUMO-3]
- selective capturing / binding of SENPs [3]: selective binding
- binding to SENPs denatured prior to addition of the peptides [3]: completely abolishes binding

Substance: Ubiquitin75-propargylamide [Ub-Prg]
- reactivity towards papain [4]: unreactive
- bond formation with UCH-L3, stable to denaturing LC-MS and denaturing SDS-PAGE ([5]; 1.2 molar equivalents, 37 °C, 30 minutes): forms a bond with UCH-L3
- reactivity with UCH-L3 after pre-treatment with iodoacetamide ([5]; UCH-L3 pre-treated with general alkylating agent iodoacetamide): abolished all reactivity
- complex formation with radical scavenger ([5]; presence of excess radical scavenger): complex formation
- reactivity towards ubiquitin ligase E1 [6]: no reactivity
- thioradical treatment of purified complex with UCH-L3 [7]: cleavage was observed
- reaction in vitro with cysteine protease DUBs [8]: react in vitro with all cysteine protease DUBs tested
- reaction in vitro with cysteine protease DUBs ([8]; listed as Ubiquitin-propargyl): reacts with all classes of cysteine deubiquitinating enzymes
- reaction with DUB mutants, active site cysteine mutated to serine [2]: abolished binding
- reactivity towards SENP-1 [9]: unreactive
- acid lability of complex with UCH-L3 [10]: cleavage of the complex
